Consider one molecule from patent publication US20210069152A1, “METHODS FOR TREATING HETEROTOPIC OSSIFICATION” (Clementia Pharmaceuticals Inc., priority 2016, published 2021).

The subject of data set [1] is heterotopic ossification in subjects with fibrodysplasia ossificans progressiva. The data set can be described thus: Volume of new heterotopic ossification at flare-up site (x-ray / low-dose CT) in FOP patients, adult cohort dosing regimens. It is filed as in vivo, human. The settings on record: for reduction in mean bone volume formation (new HO) relative to Placebo/Untreated group: 12 weeks. The method, then: FIGS. 3A and 3B are graphs showing a comparison of the volume of new heterotopic ossification between (i) episodic treatment of FOP patients (i.e., treatment during non-quiescent periods only and (ii) the treatment regimens of the present invention that include treatment during both quiescent and non-quiescent periods. Patients in the “Placebo/Untreated” group were treated with a sugar pill or untreated (28 patients). Patients in the “PVO Non-Quiescent Only” group were treated with either 20 mg palovarotene (PVO) daily for 28 days followed by 10 mg PVO daily for 56 days (47 patients) or 10 mg PVO daily for 14 days followed by 5 mg PVO daily for 28 days (9 patients). Patients in the “PVO Quiescent/Non-Quiescent” group were treated with 5 mg PVO daily during the quiescent period and with 20 mg PVO daily for 28 days (NQ loading dose) followed by 10 mg PVO daily for 56 days (NQ maintenance dose) following initiation of flare-up symptoms, i.e., initiation of a non-quiescent period (10 patients).
Adult cohort includes individuals who have achieved at least 90% skeletal maturity irrespective of age. Individuals in the adult cohort received palovarotene (neutral form) at 5 mg once daily as a non-flare-up based treatment (e.g., during periods when symptoms of a flare-up were not present). […]
Assessment of new HO at the flare-up site was evaluated using x-ray, and low-dose CT imaging was employed as a secondary imaging assessment. […] In order to ensure consistency and standardization, images were evaluated for the presence or absence of HO using two independent procedures, both of which were blinded to treatment group assignment. In the Primary Read process, two musculoskeletal radiologists independently compared baseline and post-baseline images within a single imaging modality.
The volume of new heterotopic ossification (HO), HO that occurred during the non-quiescent period, was assessed 12 weeks following initiation of treatment for the “Non-Quiescent Only” treatment group and 12 weeks after initiation of the 20 mg/day NQ loading dose in the “Quiescent/Non-Quiescent” treatment group.

Data set [2] has the same test system. Briefly: Flare-up outcomes, open-label study (new HO by low-dose CT scan). It is filed as in vivo, human. The settings on record: open-label extension study, 27 flare-ups treated with open-label palovarotene. The method, then:
(§1) Sixty-seven flare-ups have been treated: 40 with double-blind medication (10 subjects received placebo, 9 subjects received palovarotene at 5 mg once daily for 2 weeks followed by 2.5 mg once daily for 4 weeks, and 21 subjects received palovarotene at 10 mg once daily for 2 weeks followed by 5 mg once daily for 4 weeks); and 27 received open-label palovarotene. Sixty-one of these 67 flare-ups have available results from post-baseline imaging (by low-dose CT scan). The results are summarized for the respective studies in FIGS. 1 and 2.

Data set [3] has as its system subjects with fibrodysplasia ossificans progressiva. The data set can be described thus: Safety outcomes, double-blind study. It is filed as in vivo, human. The method, then:
as §1
The most frequently reported adverse events overall were dry skin (58.8%) and dry lips (32.4%).

Data set [4] shares this test system. The data set can be described thus: Safety outcomes, open-label study. It is filed as in vivo, human. How it is done: as §1
The findings were similar in the open-label study (described in Example 1) in which the overall incidence of adverse events was 92.3% (12 of 13 subjects). Retinoid-associated adverse events were reported by all subjects; most were mild (69.2%) in severity. The most frequently reported adverse events overall were dry skin (69.2%) and pruritus (61.5%).

Another data set concerns growth plate. Briefly: Growth plate assessment by knee and hand/wrist radiographs in children. The following applies: acute 6-week treatment. It is filed as in vivo, human.
Another data set relates to Prrx1-R206H mice. The data set can be described thus: Growth plate assessment in Prrx1-R206H mice. It is filed as in vivo. The method, then:
(§2) The effects of palovarotene on the growth plates were assessed.

The subject of the next data set is wild-type mice. Briefly: Growth plate assessment in wild-type mice. It is filed as in vivo. How it is done:
as §2

For `CC1(C)CCC(C)(C)c2cc(Cn3cccn3)c(/C=C/c3ccc(C(=O)O)cc3)cc21` [palovarotene, 4-[(1E)-2-[5,6,7,8-Tetrahydro-5,5,8,8-tetramethyl-3-(1H-pyrazol-1-ylmethyl)-2-naphthalenyl]-ethenyl]-benzoic acid], the “reduction in mean bone volume formation (new HO) relative to Placebo/Untreated group” value in data set [1] (Non-Quiescent Only group (both doses pooled)) is reported as 75%. The “volume of new heterotopic ossification” value in data set [1] (PVO Quiescent/Non-Quiescent: 5 mg daily quiescent, 20 mg daily 28 days then 10 mg daily 56 days after flare-up (10 patients), 12 weeks after start of NQ loading dose) is 212 mm^3. The “reduction in mean bone volume formation (new HO) relative to Placebo/Untreated group” value in data set [1] (Quiescent/Non-Quiescent group) turned out to be 97%. In addition, the “number of flare-ups with new HO” value in data set [2] is given as “four”. In data set [3], the “dose reductions or discontinuations of treatment” value was “no dose reductions or discontinuations of treatment”; the “incidence and severity of retinoid-associated adverse events, trend” value was “dose-related increases in the incidence and severity”; the “severity of most retinoid-associated adverse events” value is listed as “mild or moderate”; the “trend of adverse event incidence across the treatment groups” value is “dose-related increases across the treatment groups”. Further, the “overall incidence of adverse events” value in data set [3] (33 of 34 subjects with safety data, all treatment groups (placebo, 5/2.5 mg, 10/5 mg)) came to 97.1%. Besides, in data set [3] (overall), the “incidence of dry lips” value worked out at 32.4% and the “incidence of dry skin” value came to 58.8%. In data set [4], the “dose reductions or discontinuations of treatment” value is “no dose reductions or discontinuations of treatment”, the “retinoid-associated adverse events mild in severity” value was 69.2% and the “subjects reporting retinoid-associated adverse events” value is given as “all subjects”. For the same molecule, in data set [4] (12 of 13 subjects), the “overall incidence of adverse events” value turned out to be 92.3%. Also, in data set [4] (overall), the “incidence of dry skin” value was 69.2% and the incidence of pruritus was found to be 61.5%. Moreover, in the data set on growth plate, the “adverse effects on the growth plate” value is on record as “no adverse effects on the growth plate”. For the same molecule, in the data set with Prrx1-R206H mice, the “effect on long bone growth, growth plate organization and matrix deposition” value is “preserved long bone growth and near-normalized growth plate organization and matrix deposition”. The “effect on histologic growth plate abnormalities and long bone length” value in the data set on Prrx1-R206H mice (daily dosing) is “reversed histologic growth plate abnormalities and shortened long bones”. Also, in the data set on wild-type mice, the “effect on growth plate” value was “Adverse effects”.
